According to article PMC12066687 (Frontiers in Immunology, 2025):
Where two headings read alike, the source gives them in different places.

Assays:
VSV-EBOV-GP = assay: microbe, parasite or virus in culture; assay type: cell-based, Ebola virus (EBOV/H.sap-tc/COD/76/Yambuku-Mayinga); conditions: for inhibition at 0.2 µM: read-out: Inhibition% (200nM)
Vero cells = conditions: for cytotoxicity: African green monkey
EBOV-GP = EBOV-GP (Zaire ebolavirus, UniProt Q05320); assay: biochemical; assay type: binding, Zaire EBOV (strain Mayinga-76)
in vitro = conditions: African green monkey
VSV-LASV-GP = assay type: cell-based, Lassa virus (LASV) (Josiah)
VSV-G = assay type: cell-based, vesicular stomatitis virus

Chain of EBOV-GP (Q05320 33-650 limits assumed): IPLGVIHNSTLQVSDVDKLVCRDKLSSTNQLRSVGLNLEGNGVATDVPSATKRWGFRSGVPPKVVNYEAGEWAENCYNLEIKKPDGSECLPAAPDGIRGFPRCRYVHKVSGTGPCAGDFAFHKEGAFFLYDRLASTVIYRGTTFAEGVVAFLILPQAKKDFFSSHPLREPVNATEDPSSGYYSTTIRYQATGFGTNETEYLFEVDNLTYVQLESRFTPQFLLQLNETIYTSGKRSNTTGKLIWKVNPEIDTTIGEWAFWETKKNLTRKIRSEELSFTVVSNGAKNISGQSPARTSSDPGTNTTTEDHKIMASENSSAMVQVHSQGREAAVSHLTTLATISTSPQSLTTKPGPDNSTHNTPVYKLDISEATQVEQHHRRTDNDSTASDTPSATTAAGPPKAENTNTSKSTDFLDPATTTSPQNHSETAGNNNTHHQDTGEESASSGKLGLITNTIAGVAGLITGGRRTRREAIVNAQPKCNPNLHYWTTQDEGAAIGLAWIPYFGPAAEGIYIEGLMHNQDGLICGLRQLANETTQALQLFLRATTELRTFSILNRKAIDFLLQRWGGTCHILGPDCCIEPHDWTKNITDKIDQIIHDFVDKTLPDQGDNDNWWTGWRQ

Compound	EC50 (VSV-EBOV-GP; Zaire ebolavirus, Vero) [nM]	SI (Selectivity index = CC50/EC50) (Vero cells)	CC50 (in vitro) [nM]	further results
CC/C(=C(\c1ccccc1)c1ccc(OCCN(C)C)cc1)c1cccc(N=S(=O)(F)F)c1 [Compound 1]				EC50 (VSV-EBOV-GP; Zaire ebolavirus, Vero, 16 h): 380 nM; cytotoxicity (Vero cells): did not exhibit cytotoxicity up to 10 µM
CC/C(=C(\c1ccccc1)c1ccc(OCCN(C)C)cc1)c1cccc(NS(=O)(=O)NC2CCCOC2)c1 (centres unmarked) [Compound 2]				EC50 (VSV-EBOV-GP; Zaire ebolavirus, Vero, 16 h): 470 nM
CC/C(=C(\c1ccccc1)c1ccc(OCCN(C)C)cc1)c1cccc(NS(=O)(=O)NCc2ncon2)c1 [Compound 3]				EC50 (VSV-EBOV-GP; Zaire ebolavirus, Vero, 16 h): 550 nM
CC/C(=C(\c1ccccc1)c1ccc(OCCN(C)C)cc1)c1cccc(NS(=O)(=O)N[C@@H]2CCOC2)c1 [Compound 4R]	351	43	15000	cytotoxicity (Vero cells): did not show significant cytotoxicity below 10 µM; Kd (EBOV-GP): 6400 nM
CC/C(=C(\c1ccccc1)c1ccc(OCCN(C)C)cc1)c1cccc(NS(=O)(=O)N[C@H]2CCOC2)c1 [Compound 4S]	92	150	14000	inhibition of VSV-LASV-GP (VSV-LASV-GP): selective inhibition of VSV-EBOV-GP but not VSV-G or VSV-LASV-GP; cytotoxicity (Vero cells): did not show significant cytotoxicity below 10 µM; Kd (EBOV-GP): 630 nM; affinity enhancement vs tamoxifen (EBOV-GP): 50 fold; inhibition of VLPs displaying VSV-G (VSV-G): selective inhibition of VSV-EBOV-GP but not VSV-G or VSV-LASV-GP
CC/C(=C(\c1ccccc1)c1ccc(OCCN(C)C)cc1)c1cccc(NS(=O)(=O)NC2CCOC2)c1 (centres unmarked) [Compound 4]	241			EC50 (VSV-EBOV-GP): 240 nM
CC/C(=C(\c1ccccc1)c1ccc(OCCN(C)C)cc1)c1cccc(NS(=O)(=O)NC2COC2)c1 [Compound 5]	156	44	6800	
CC/C(=C(\c1ccccc1)c1ccc(OCCN(C)C)cc1)c1cccc(NS(=O)(=O)NC2COCC2C)c1 (centres unmarked) [Compound 6]	201	70	14000	
CC/C(=C(\c1ccccc1)c1ccc(OCCN(C)C)cc1)c1cccc(NS(=O)(=O)NC2(C)CCOC2)c1 (centres unmarked) [Compound 7]	268	31	8400	
CC/C(=C(\c1ccccc1)c1ccc(OCCN(C)C)cc1)c1cccc(NS(=O)(=O)NC2CCN(C)C2)c1 (centres unmarked) [Compound 8]	145	14	2000	
CC/C(=C(\c1ccccc1)c1ccc(OCCN(C)C)cc1)c1cccc(NS(=O)(=O)NC2CCN(C(C)C)C2)c1 (centres unmarked) [Compound 9]	790	4.3	3400	
CC/C(=C(\c1ccccc1)c1ccc(OCCN(C)C)cc1)c1cccc(NS(=O)(=O)N[C@H]2CCN(C)C2)c1 [Compound 10]	664	4.5	3000	
CC/C(=C(\c1ccccc1)c1ccc(OCCN(C)C)cc1)c1cccc(NS(=O)(=O)N[C@@H]2CCN(C)C2)c1 [Compound 11]	575	6.3	3600	
CC/C(=C(\c1ccccc1)c1ccc(OCCN(C)C)cc1)c1cccc(NS(=O)(=O)NC2CCN(CC)C2)c1 (centres unmarked) [Compound 12]	841	4.8	4000	
CC/C(=C(\c1ccccc1)c1ccc(OCCN(C)C)cc1)c1cccc(NS(=O)(=O)N[C@H]2CCN(C(CC)CC)C2)c1 [Compound 13]	813	6.5	5300	
CCCN1CCC(NS(=O)(=O)Nc2cccc(/C(CC)=C(/c3ccccc3)c3ccc(OCCN(C)C)cc3)c2)C1 (centres unmarked) [Compound 14]	618	5.0	3100	
CC/C(=C(\c1ccccc1)c1ccc(OCCN(C)C)cc1)c1cccc(NS(=O)(=O)NC2CCN(CCCO)C2)c1 (centres unmarked) [Compound 15]	1720	4.5	7700	
CC/C(=C(\c1ccccc1)c1ccc(OCCN(C)C)cc1)c1ccc(NS(=O)(=O)NCc2ccn[nH]2)cc1 [Compound B02, CC/C(=C(\c1ccccc1)c1ccc(OCCN(C)C)cc1)c1ccc(NS(=O)(=O)NCc2ccn[nH]2)cc1]				inhibition at 0.2 µM (VSV-EBOV-GP; Zaire ebolavirus, Vero): 4.27%
CC/C(=C(\c1ccccc1)c1ccc(OCCN(C)C)cc1)c1ccc(N=S(=O)(F)N(C)Cc2ccn[nH]2)cc1 (centres unmarked) [Compound C02, CC/C(=C(\c1ccccc1)c1ccc(OCCN(C)C)cc1)c1ccc(N=S(=O)(F)N(C)Cc2ccn[nH]2)cc1]				inhibition at 0.2 µM (VSV-EBOV-GP; Zaire ebolavirus, Vero): 2.05%
CC/C(=C(\c1ccccc1)c1ccc(OCCN(C)C)cc1)c1ccc(NS(=O)(=O)NCc2n[nH]c(=O)[nH]2)cc1 [Compound D02, CC/C(=C(\c1ccccc1)c1ccc(OCCN(C)C)cc1)c1ccc(NS(=O)(=O)NCc2n[nH]c(=O)[nH]2)cc1]				inhibition at 0.2 µM (VSV-EBOV-GP; Zaire ebolavirus, Vero): -0.485%
CC/C(=C(\c1ccccc1)c1ccc(OCCN(C)C)cc1)c1ccc(N=S(=O)(F)N(C)Cc2n[nH]c(=O)[nH]2)cc1 (centres unmarked) [Compound E02, CC/C(=C(\c1ccccc1)c1ccc(OCCN(C)C)cc1)c1ccc(N=S(=O)(F)N(C)Cc2n[nH]c(=O)[nH]2)cc1]				inhibition at 0.2 µM (VSV-EBOV-GP; Zaire ebolavirus, Vero): 11%
CC/C(=C(\c1ccccc1)c1ccc(OCCN(C)C)cc1)c1ccc(NS(=O)(=O)NC(C)c2n[nH]c(=O)[nH]2)cc1 (centres unmarked) [Compound F02, CC/C(=C(\c1ccccc1)c1ccc(OCCN(C)C)cc1)c1ccc(NS(=O)(=O)NC(C)c2n[nH]c(=O)[nH]2)cc1]				inhibition at 0.2 µM (VSV-EBOV-GP; Zaire ebolavirus, Vero): 14.1%
CC/C(=C(\c1ccccc1)c1ccc(OCCN(C)C)cc1)c1ccccc1 [Tamoxifen, tamoxifen, reference compound]				inhibition of VSV-LASV-GP (VSV-LASV-GP): selective inhibition of VSV-EBOV-GP but not VSV-G or VSV-LASV-GP; inhibition of VLPs displaying VSV-G (VSV-G): selective inhibition of VSV-EBOV-GP but not VSV-G or VSV-LASV-GP
